In publication PMC5344979, “Stabilizing short-lived Schiff base derivatives of 5-aminouracils that activate mucosal-associated invariant T cells” (Nature Communications, 2017):
Blank lines part the entries; values can stand above or below the compound they belong to.

Columns and labels:
physchem = conditions: for half-life: PBS buffer
Experimental: (§2) Stock solutions of either crude (3a, 3b and 9) or purified compounds (3c, 10 and 11) in DMSO-d6, with a known concentration calibrated using the PULCON NMR technique[52], were dissolved in aqueous buffers, such as TBS buffer (10 mM Tris, 150 mM NaCl, pH 8.0), PBS (pH 7.4), MilliQ water (pH 6.8), or aqueous ammonium acetate buffer (20 mM, pH 5.4, 150 mM NaCl). Consumption of 3 was monitored by LCMS.
(§3) Stability in aqueous media. TBS buffer (10 mM Tris, 150 mM NaCl,
(§4) pH 8.0), PBS (pH 7.4), MilliQ water (pH 6.8), or ammonium acetate buffer (20 mM, 150 mM
(§5) The initial concentration was quantified by measuring the LCMS UV chromatogram
(§6) absorbance peak area at 365 nm. Data shown as % of initial concentration.

[1] = Stability in aqueous media (LCMS); conditions: for t1/2: C0 0.065 mM
Experimental: as §2, §3, §4, §5, §6

Stability in DMSO (NMR) = type: physicochemical; conditions: for days at room temperature
MR1 on C1R.MR1 cells = assay: Upregulation of MR1 surface expression; type: cell-based, human; conditions: 24 h time course, mAb 26.5
Experimental: (§1) MAIT reporter cell activation assays and MR1 upregulation assays were performed by slight modifications to reported methods. Briefly, Jurkat cells transduced with genes encoding a MAIT TCR comprising the TRAV1-2-TRAJ33 invariant α chain, and a TRBV6-1 β chain, were tested for activation by co-incubation with compounds and C1R antigen-presenting cells expressing MR1 (CIR.MR1) for 16 h or over a time course as indicated. Cells were subsequently stained with PE-Cy7-conjugated anti-CD3 (UCHT1, eBioscience, 1:300), and APC-conjugated anti-CD69 (BD, 1:25) antibodies as well as biotinylated anti-MR1 mAb 26.5, a gift from Dr Ted Hansen, Washington University School of Medicine, St Louis, MO[53], followed by Streptavidin-PE (BD, 1:1,000), before analysis by on a FACS CantoII (BD) flow cytometer. Activation of Jurkat.MAIT was measured by an increase in surface CD69 expression. MR1 expression was detected on gated C1R.MR1 cells in the same assay.

[2] = system: human MAIT TCR-transduced Jurkat T cells and MR1-overexpressed C1R cells; assay: MAIT reporter cell activation assay (surface CD69 on Jurkat.MAIT); type: cell-based; conditions: Jurkat.MAIT + C1R.MR1, 16 h
Experimental: MAIT activation was evaluated using a well established reporter assay[17] by co-culturing two cell lines (human MAIT TCR-transduced Jurkat T cells and MR1-overexpressed C1R cells, Fig. 3g).
as §1, with “assay. […]” for “assay.”
MAIT reporter cell activation assay
Conducted as described previously16. Jurkat cells transduced with genes encoding a MAIT TCR comprising the TRAV1-2-TRAJ33 invariant α chain and a TRBV6-1 β chain were co-incubated with C1R antigen presenting cells expressing MR1 (CIR.MR1) in the presence of graded amounts of ligands for 16 h. Cells were subsequently stained with PE-Cy7-conjugated anti-CD3 (eBioscience), and APC-conjugated anti-CD69 (BD Biosciences) antibodies, followed by Streptavidin-PE (BD Biosciences), before analysis by flow cytometry. Activation of Jurkat.MAIT cells was measured by an increase in surface CD69 expression.

human MAIT cells = assay: In vitro PBMC stimulation assay (intracellular cytokine staining); type: cell-based; conditions: human PBMCs alone or with THP-1 cells
Experimental: To assess the ability of 11 to activate MAIT cells, human PBMCs were cultured alone, or with THP-1 cells, in the presence of the compounds, and cytokine production assessed by intracellular cytokine staining.
Stimulation of PBMCs was performed essentially as previously described. Briefly, 5 × 10^5 PBMCs were cultured, alone or with 1 × 10^5 THP-1 cells, overnight with or without compounds 3c or 11 at a range of doses or with PMA and ionomycin (5 ng ml^−1 and 1 μg ml^−1 final concentrations, respectively) as a positive control. BD GolgiStop (1:1,000 dilution) was added after the first hour of stimulation. Cells were stained for surface markers using human MR1-5-OP-RU tetramer (PE, 1:300), and monoclonal antibodies to CD3 (PE-CF594, UCHT1, BD Horizon, 1:50), CD161 (PE-Cy7, HP-3G10, Biolegend, 1:50) for 30 min on ice and fixed in 1% paraformaldehyde before cytokine production by MAIT cells was detected by intracellular cytokine staining with monoclonal antibodies to TNF (APC, MAb11, eBioscience, 1:50) and IFNγ (AlexaFluor700, B27, BD 1:50) in the presence of 0.3% saponin. Data was acquired on a BD LSR-Fortessa and analysed using FlowJo software (Tree Star).

human MR1 = target: T1, human MR1 (Homo sapiens, UniProt Q95460); assay: MR1 refolding with ligand; type: binding; conditions: in the presence of the compound
T1 construct: Genes encoding soluble human MR1 or human β2m were expressed; made in house
Experimental: E. coli were pelleted and resuspended in a buffer containing 50 mM Tris, 25% (w/v) sucrose, 1 mM EDTA, 10 mM DTT pH 8.0.

[3] = PBS pH 7.4, 37 °C, DMSO stock diluted into buffer

- half-life at 1 mM (physchem; MilliQ water, pH 6.8): 7.68 h
- half-life (physchem; pH 7.4): 0.2 h
- half-life (physchem; pH 8): 14 h
- half-life at 0.065 mM (physchem; TBS buffer, pH 8): 14.4 h
- half-life at 0.25 mM (physchem; TBS buffer, pH 8): 14.9 h
- half-life at 10 mM (physchem; TBS buffer, pH 8): 8.63 h
- t1/2 ([1]; PBS pH 7.4, 15 °C): 5.7 h
- t1/2 [1, 3]: 1.47 h
- t1/2 ([1]; pH 5.4 ammonium acetate buffer, 15 °C): 0.733 h
- t1/2 ([1]; pH 5.4 ammonium acetate buffer, 37 °C): 0.217 h
- half-life ([1]; pH 6.8 (MilliQ water), 15 °C, 0.065 mM): 12 h
- t1/2 ([1]; pH 6.8 MilliQ water, 15 °C): 12.3 h
- t1/2 ([1]; pH 6.8 MilliQ water, 37 °C): 2.18 h
- stable in DMSO solution (Stability in DMSO (NMR)): > 95%
Structure (SMILES): CC(=O)C=Nc1c(NCC(O)C(O)C(O)CO)[nH]c(=O)[nH]c1=O [3c, 5-(2-oxopropylideneamino)-6-D-ribitylaminouracil]
- time at which MR1 upregulation peaked (MR1 on C1R.MR1 cells): 4 h

- t1/2 ([1]; PBS pH 7.4, 15 °C): 1.92 h
- t1/2 [1, 3]: 0.65 h
- EC50 [2]: 14 ± 14 nM
Structure (SMILES): CC(=O)/C=N/c1c(N(C)C[C@H](O)[C@H](O)[C@H](O)CO)[nH]c(=O)[nH]c1=O [compound 9]

- half-life at 0.065 mM (physchem; TBS buffer, pH 8): 0.3 h
- EC50 [2]: 0.51 nM
Structure (SMILES): O=CC=Nc1c(NCC(O)C(O)C(O)CO)[nH]c(=O)[nH]c1=O [3b, 5-(2-oxoethylideneamino)-6-D-ribitylaminouracil]

- aqueous stability ([1]; PBS buffer pH 7.4, 37 °C, 5 days): no degradation observed over 5 days
- refolding of human MR1 (human MR1): readily refolded
Structure (SMILES): CC(=O)/C=C/c1c(CC[C@H](O)[C@H](O)[C@H](O)CO)[nH]c(=O)[nH]c1=O [compound 11]
- cytokine production by human MAIT cells (human MAIT cells): stimulated the production of interferon-γ (IFNγ) and tumour necrosis factor (TNF)
- MR1 surface expression (MR1 on C1R.MR1 cells): continued to increase over 24 h

- time to complete degradation ([1]; pH 8.0, 15 °C): < 5 min
- EC50 [2]: 24 nM
Structure (SMILES): CC(=O)C(C)=Nc1c(NCC(O)C(O)C(O)CO)[nH]c(=O)[nH]c1=O [3a, 5-(1-methyl-2-oxopropylideneamino)-6-D-ribitylaminouracil]

- EC50 [2]: > 100 nM
Structure (SMILES): Cc1cnc2c(=O)[nH]c(=O)nc-2n1C[C@H](O)[C@H](O)[C@H](O)CO [4c]

- t1/2 ([1]; PBS pH 7.4, 15 °C): 10.2 h
- t1/2 [1, 3]: 2.25 h
- EC50 [2]: > 10000 nM
Structure (SMILES): CC(=O)/C=C/c1c(N(C)C[C@H](O)[C@H](O)[C@H](O)CO)[nH]c(=O)[nH]c1=O [compound 10]

- EC50 [2]: 18 nM
Structure (SMILES): Nc1c(NC[C@H](O)[C@H](O)[C@H](O)CO)[nH]c(=O)[nH]c1=O [compound 1, 5-amino-6-D-ribitylaminouracil, reference compound]
